Source: paper PMC5762913, “Probing the molecular basis of hERG drug block with unnatural amino acids” (Scientific Reports, 2018)

Tests used:
[1] = system: nicotinic receptor α-subunit Trp-149 doubly fluorinated; design: method as in PMID 9770444; conditions: doubly fluorinating Trp-149 in the α-subunit; cited from earlier work
hERG S631A = conditions: S631A mutation which abolishes inactivation, versus WT; cited from earlier work
hERG Tyr652 and Phe656 = assay: Assessment of cation-π interaction in hERG drug block across fluorinated Phe series; conditions: judged from IC50 across Y652 and F656 fluorinated Phe series
Excerpt: Testing whether a cation-π relationship occurs at an aromatic residue can be accomplished by measuring the impact of substitution with a series of fluorinated aromatic amino acids. Successive fluorinations of aromatic side chains yield additive reductions in ability to donate π electrons to cation-π interactions[30]. Through the use of nonsense suppression, we incorporated singly and doubly fluorinated phenylalanine derivatives at both Tyr652 and Phe656. These UAA also have the advantage of providing a sterically conservative means of studying the specific nature of interactions of individual residues. If hERG drug interactions depend largely on cation-π binding interactions at sites Tyr652 and Phe656, then successive fluorinations at these sites should decrease drug affinity in a linear manner[30].
This protocol is repeated in successive sweeps as either control or drug-containing solutions flow into the bath chamber and over the oocyte. […] The steady state current at −50 mV reached at each drug concentration was normalized to the steady state current at −50 mV with no drug. From these normalized values, a concentration-response curve was generated and fit with a Hill equation. IC50 and Hill coefficient values were generated from each Hill fit. […]

For CC(=O)OCC[N+](C)(C)C [acetyl choline], the reduction of potency [1] is listed as “nearly an order of magnitude”.

For CN(CCOc1ccc(NS(C)(=O)=O)cc1)CCc1ccc(NS(C)(=O)=O)cc1 [Dofetilide, dofetilide], the potency of block (hERG S631A) is listed as “reduced” and the “Cation – π behaviour?” value (hERG Tyr652 and Phe656) is listed as “No”.

In the case of C=C[C@H]1C[N@@]2CC[C@H]1C[C@@H]2[C@@H](O)c1ccnc2ccc(OC)cc12 [Quinidine, quinidine], the potency of block (hERG S631A) is given as “reduced” and the “Cation – π behaviour?” value (hERG Tyr652 and Phe656) is given as “No”.
